Laboratory results as given in patent publication US3997518A, “2-Alkyl-4-carboxyalkyl-5-(3,3'-dimethyltriazeno)-imidazoles” (Beecham Group Limited, priority 1970, dated 1976).
Values after ≈ are worked out from the molar mass of the structure shown.

How the values were obtained:
R1 lymphoma [1] = assay: Activity against R1 lymphoma, increase in survival time (Table A); assay type: in vivo, mice; details: Mus musculus, ip, read-out: Medium % increase in survival time; for ILS at 64 mg/kg: 64 mg/kg i.p. daily day 3 to day 7; for ILS at 32 mg/kg: 32 mg/kg i.p. daily day 3 to day 7; for ILS at 128 mg/kg: 128 mg/kg i.p. daily day 3 to day 7; for ILS at 33 mg/kg: 33 mg/kg i.p. daily day 3 to day 7
Procedure: (§1) The R1 lymphoma is normally sensitive to anti-metabolites. Typically mice having a transplant of 1.5 × 10^6 tumour cells die from the metastisizing tumour on day 9, 10 or 11 after transplant.
(§2) The compounds illustrated below were dosed by the intra peritoneal route in a vehicle of 10% acetone in arachas oil daily from day 3 to day 7 after tumour transplant. The increase in survival time over control was measured.
(§3) The dose reported is that dose which gave the maximum increase in survival time. Lower doses gave less activity and higher doses are toxic.
(§4) The results are split into two sections (in Table A and Table B) because two slightly different strains of R1 lymphoma were used.

Friend leukaemia virus = assay: Friend Leukaemia, inhibition of splenomegally; assay type: in vivo, mice; details: sub-cutaneously 250 mg/kg/day on day -1, +1, +2 and +3 with respect to infection
From the text: Activity of these compounds has also been shown in Friend Leukaemia. Friend leukaemia virus is a prolonged infection in mice produced splenomegally.

Candida neoformans = assay: Antifungal activity, minimum inhibitory concentration; assay type: cell-based
From the text: (§5) Antifungal activity has been found in compounds of this invention. Thus 4-carboxyethyl-5-(3,3-dimethyltriazeno)-2-phenylimidazole has the following minimum inhibitory concentrations.

Candida albicans = assay: as above; assay type: cell-based
From the text: as §5

[2] = test system: Trychopyton mentagrophytes; assay: as above; assay type: cell-based
From the text: as §5

Staphylococus aureus = assay: Antibacterial activity, MIC; assay type: cell-based; details: DST agar + 5% lysed horse blood
From the text: (§6) Compounds of this invention have shown antibacterial activity. Thus the minimum inhibitory concentration (M.I.C.) of 4-carboxyethyl-5-(3,3-dimethyltriazeno)-2-phenylimidazole and the corresponding 2-methylimidazole in DST agar + 5% lysed horse blood are illustrated against the following bacteria.

[3] = test system: Streptococus heamolyticus; assay: Antibacterial activity, MIC; assay type: cell-based; details: DST agar + 5% lysed horse blood
From the text: as §6

[4] = Dose at which 50% of the animals were killed (LD50); parameters: species or system mice; details: mouse, in vivo, ip; i.p. dosing × 5
From the text: (§7) The breadth of antitumour spectrum of the compounds of the invention in mice is illustrated by their activity in the ADJ/PC6 plasma cell tumour. This is a solid tumour sensitive to most alkylating agents. Good activity is rarely seen against this tumour and the R1 lymphoma.

R1 lymphoma [5] = assay: Activity against R1 lymphoma, increase in survival time (Table B, slightly different strain); assay type: in vivo, mice; details: for ILS at 33 mg/kg: 33 mg/kg i.p. daily day 3 to day 7; for ILS at 128 mg/kg: 128 mg/kg i.p. daily day 3 to day 7
Procedure: as §1, §2, §3, §4

PC 6 tumour = PC 6 tumour screen; assay type: in vivo, mice
From the text: as §7
The test of example 91 was repeated using the PC 6 tumour screen.

[6] = test system: ADJ/PC6 plasma cell tumour; assay: ADJ/PC6 plasma cell tumour, inhibition of tumour weight; assay type: in vivo, mice; details: i.p. dosing × 5; for ED90: Mus musculus, ADJ/PC6, ip, read-out: ID90 (the source's name); for Therapeutic Index: LD50 compared with ID90
From the text: as §7

E. Coli = assay: Antibacterial activity, MIC; assay type: cell-based; details: Escherichia coli; DST agar + 5% lysed horse blood
From the text: as §6

Pseudomonas aeroginosa = assay: Antibacterial activity, MIC; assay type: cell-based; details: DST agar + 5% lysed horse blood
From the text: as §6

Proteus mirabilis = assay: Antibacterial activity, MIC; assay type: cell-based; details: DST agar + 5% lysed horse blood
From the text: as §6

[7] = Skibba et al., Biochemical Pharmacology, 19, 2043 (1970); cited from earlier work
[8] = Table A strain, dose of maximum increase
[9] = Mus musculus, ip, Table B strain, dose of maximum increase, read-out: Medium % increase in survival time
[10] = dose at which 90% inhibition of tumour weight occurs
[11] = Mus musculus, ip, Table B strain, 32 mg/kg i.p. daily day 3 to day 7, dose of maximum increase, read-out: Medium % increase in survival time

`COC(=O)c1nc(-c2ccccc2)[nH]c1N=NN(C)C` gave an ILS at 16 mg/kg (R1 lymphoma [1]; Table A strain, 16 mg/kg i.p. daily day 3 to day 7, dose of maximum increase) of 400%.

`CCOC(=O)c1nc(Cc2ccccc2)[nH]c1N=NN(C)C` [4-Carbethoxy-5-(3,3-di-methyl-triazeno)-2-benzyl imidazole] showed an ILS at 64 mg/kg (R1 lymphoma [1]; [8]) of 200%.

For `CCOC(=O)c1nc(-c2ccccc2)[nH]c1N=NN(C)C` [4-Carbethoxy-5-(3,3-dimethyl-triazeno)-2-phenyl imidazole], the “inhibition of the splenomegally” value (Friend leukaemia virus) was “complete inhibition of the splenomegally”, the MIC (Candida neoformans) was 10 to 50 µg/mL (≈ 34.8 to 174 µM) and the MIC (Candida albicans) was 10 µg/mL (≈ 34.8 µM). It also gave an MIC [2] of 10 µg/mL (≈ 34.8 µM), an MIC (Staphylococus aureus) of 10 µg/mL and an MIC [3] of 1 µg/mL. The LD50 [4] was 310 mg/kg, the ILS at 32 mg/kg (R1 lymphoma [1]; [8]) was 300% and the ILS at 33 mg/kg (R1 lymphoma [5]; [9]) was 65%. For the same compound, the “Therapeutic Index” value (PC 6 tumour; i.p. dosing) was 27, the “Therapeutic Index” value (PC 6 tumour; oral dosing) was 11 and the ED90 [6, 10] was 3.5 mg/kg. The “Therapeutic Index” value [6] was 88.

With `CCOC(=O)c1nc(-c2cccnc2)[nH]c1N=NN(C)C` [4-Carbethoxy-5-(3,3-dimethyltriazeno)-2-(3-pyridyl)imidazole] the ILS at 32 mg/kg (R1 lymphoma [1]; [8]) was 170%.

With `CCOC(=O)c1nc(-c2ccc(F)cc2)[nH]c1N=NN(C)C` [4-Carbethoxy-5-(3,3-dimethyltriazeno)-2-(p-fluorophenyl) imidazole] the LD50 [4] was 200 mg/kg, the ED90 [6, 10] was 20 mg/kg and the “Therapeutic Index” value [6] was 10.

Work on `CCOC(=O)Cc1nc(C(=O)OCC)c(N=NN(C)C)[nH]1` [4-Carbethoxy-5-(3,3-dimethyltriazeno)-2-carbethoxymethyl imidazole] yielded an ILS at 64 mg/kg (R1 lymphoma [1]; [8]) of 400%.

With `CCOC(=O)c1nc(C2CCCCC2)[nH]c1N=NN(C)C` [4-Carbethoxy-5-(3,3-dimethyltriazeno)-2-cyclohexyl imidazole] the ILS at 21 mg/kg (R1 lymphoma [5]; Mus musculus, ip, Table B strain, 21 mg/kg i.p. daily day 3 to day 7, dose of maximum increase, read-out: Medium % increase in survival time) was 85%.

Work on `CCOC(=O)c1nc(N(C)C)[nH]c1N=NN(C)C` [4-Carbethoxy-5-(3,3-dimethyltriazeno)-2-dimethylamino imidazole] yielded an ILS at 16 mg/kg (R1 lymphoma [5]; Mus musculus, ip, Table B strain, 16 mg/kg i.p. daily day 3 to day 7, dose of maximum increase, read-out: Medium % increase in survival time) of 45%.

`CCOC(=O)c1nc(CC)[nH]c1N=NN(C)C` [4-Carbethoxy-5-(3,3-dimethyltriazeno)-2-ethyl imidazole] gave an ILS at 32 mg/kg (R1 lymphoma [5]; [11]) of 70%.

Work on `CCOC(=O)c1nc(S)[nH]c1N=NN(C)C` [4-Carbethoxy-5-(3,3-dimethyltriazeno)-2-mercapto imidazole] yielded an ILS at 128 mg/kg (R1 lymphoma [5]; [9]) of 140%.

For `CCOC(=O)c1nc(C)[nH]c1N=NN(C)C` [4-Carbethoxy-5-(3,3-dimethyltriazeno)-2-methylimidazole], the MIC (Staphylococus aureus) was 7.5 µg/mL, the MIC (E. Coli) was 15 µg/mL and the MIC (Pseudomonas aeroginosa) was 62 µg/mL. The MIC (Proteus mirabilis) was 15 µg/mL, the ILS at 32 mg/kg (R1 lymphoma [5]; [11]) was 90% and the “Therapeutic Index” value (PC 6 tumour; i.p. dosing) was 47. The “Therapeutic Index” value (PC 6 tumour; oral dosing) was 40.

For `CCCc1nc(C(=O)OCC)c(N=NN(C)C)[nH]1` [4-Carbethoxy-5-(3,3-dimethyltriazeno)-2-n propyl imidazole], the ILS at 32 mg/kg (R1 lymphoma [5]; [11]) was 130%.

In the case of `CCOC(=O)c1nc(COc2ccc(OC)cc2)[nH]c1N=NN(C)C` [4-Carbethoxy-5-(3,3-dimethyltriazeno)-2-p-methoxy-phenoxymethylimidazole], the ILS at 64 mg/kg (R1 lymphoma [1]; [8]) is reported as over 150%.

With `CCOC(=O)c1nc(COc2ccccc2)[nH]c1N=NN(C)C` [4-Carbethoxy-5-(3,3-dimethyltriazeno)-2-phenoxymethyl imidazole] the ILS at 64 mg/kg (R1 lymphoma [1]; [8]) was 85%.

With `CCOC(=O)c1nc(C)n(C)c1N=NN(C)C` [4-Carbethoxy-5-(3,3-dimethyltriazeno-1-2 dimethylimidazole] the “Medium % increase in survival time” value (R1 lymphoma [5]; Table B strain, 32 mg/kg i.p. daily day 3 to day 7, dose of maximum increase) was 65%.

Work on `COC(=O)c1nc(S)[nH]c1N=NN(C)C` [4-Carbmethoxy-5-(3,3-dimethyltriazeno)-2-mercapto imidazole] yielded an ILS at 32 mg/kg (R1 lymphoma [5]; [11]) of 90%.

For `CN(C)N=Nc1[nH]c(-c2cccs2)nc1C(N)=O` [4-Carboxamido-5-(3,3-dimethyltriazeno)-2-(2-thienyl)imidazole], the ILS at 128 mg/kg (R1 lymphoma [1]; [8]) was 50%.

For `Cc1nc(C(N)=O)c(N=NN(C)C)[nH]1` [4-Carboxamido-5-(3,3-dimethyltriazeno)-2-methyl imidazole], the ILS at 128 mg/kg (R1 lymphoma [5]; [9]) was 60%.

Work on `CN(C)N=Nc1[nH]c(-c2ccccc2)nc1C(N)=O` [4-Carboxamido-5-(3,3-dimethyltriazeno)-2-phenylimidazole] yielded an LD50 [4] of 240 mg/kg, an ILS at 50 mg/kg (R1 lymphoma [1]; Table A strain, 50 mg/kg i.p. daily day 3 to day 7, dose of maximum increase) of 80% and an ED90 [6, 10] of 16 mg/kg. For the same compound, the “Therapeutic Index” value [6] was 15.

Work on `CCOC(=O)c1nc(-c2ccccc2F)[nH]c1N=NN(C)C` [4-Carboxyethyl-5-(3,3-dimethyltriazeno)-2-(2-fluorophenyl) imidazole] yielded an ILS at 10 mg/kg (R1 lymphoma [1]; Table A strain, 10 mg/kg i.p. daily day 3 to day 7, dose of maximum increase) of 100%.

`CCOC(=O)c1nc(-c2ccc3ccccc3c2)[nH]c1N=NN(C)C` [4-Carboxyethyl-5-(3,3-dimethyltriazeno)-2-(2-naphthyl) imidazole] showed an ILS at 128 mg/kg (R1 lymphoma [1]; [8]) of 170%.

`CCOC(=O)c1nc(-c2ccc(OC)c(OC)c2)[nH]c1N=NN(C)C` [4-Carboxyethyl-5-(3,3-dimethyltriazeno)-2-(3,4-dimethoxy-phenyl) imidazole] gave an ILS at 33 mg/kg (R1 lymphoma [1]; [8]) of 200%.

In the case of `CCOC(=O)c1nc(-c2cccc(C)c2)[nH]c1N=NN(C)C` [4-Carboxyethyl-5-(3,3-dimethyltriazeno)-2-(3-methyl-phenyl) imidazole], the ILS at 128 mg/kg (R1 lymphoma [1]; [8]) is reported as 150%.

For `CCOC(=O)c1nc(-c2ccsc2)[nH]c1N=NN(C)C` [4-Carboxyethyl-5-(3,3-dimethyltriazeno)-2-(3-thienyl) imidazole], the ILS at 33 mg/kg (R1 lymphoma [1]; [8]) was 200%.

Work on `CCOC(=O)c1nc(-c2ccc(OC)cc2)[nH]c1N=NN(C)C` [4-Carboxyethyl-5-(3,3-dimethyltriazeno)-2-(4-methoxyphenyl) imidazole] yielded an ILS at 33 mg/kg (R1 lymphoma [1]; [8]) of 50%.

With `CCOC(=O)c1nc(-c2ccc(Cl)cc2)[nH]c1N=NN(C)Cc1ccccc1` [4-Carboxyethyl-5-(3-methyl-3-benzyltriazeno)-2-(4-chlorophenyl)imidazole] the ILS at 100 mg/kg (R1 lymphoma [1]; Table A strain, 100 mg/kg i.p. daily day 3 to day 7, dose of maximum increase) was 40%.

In the case of `CN(C)N=Nc1[nH]cnc1C(N)=O` [DIC, 4-Carboxamide-5-(3,3-dimethyltriazeno)imidazole, reference compound], the degradation in man [7] is listed as “degraded substantially to AIC”, the ILS at 32 mg/kg (R1 lymphoma [1]; [8]) is listed as 300% and the ILS at 33 mg/kg (R1 lymphoma [5]; [9]) is listed as 60%. For the same compound, the “Therapeutic Index” value (PC 6 tumour; i.p. dosing) was 33 and the “Therapeutic Index” value (PC 6 tumour; oral dosing) was 24.

With `CN(Cc1cnc2nc(N)nc(N)c2n1)c1ccc(C(=O)N[C@@H](CCC(=O)O)C(=O)O)cc1` [Methotrexate, 4-amino-10-methyl folic acid, reference compound] the ILS at 2 mg/kg (R1 lymphoma [1]) was 100%, the ILS at 2 mg/kg (R1 lymphoma [5]; Mus musculus, ip, read-out: Medium % increase in survival time) was 60% and the ID90 [6, 10] was “Inactive”.
